Ki and IC50 data for two molecules are collected here from patent US9676720B2, “Substituted biaryl compound” (UBE INDUSTRIES, LTD., priority 2013, dated 2017).

Where two headings read alike, the source gives them in different places.

One assay deals with human EP2 receptor (Homo sapiens (Human), UniProt P43116). The assay can be described thus: Measurement of EP2 receptor binding action. As to conditions: membrane fraction of HEK293 cells expressing human EP2 receptor; [3H]prostaglandin E2 10 nM. The procedure: The membrane fraction was recovered on glass fiber filter paper (GF/B, manufactured by Whatman) using a cell harvester (M30R, manufactured by Brandel), and after washing with a buffer solution (10 mM MES-KOH (pH 6.0), 10 mM MgCl2), radioactivity was measured with a liquid scintillation analyzer (2000CA, manufactured by Packard). […] Ki=IC50/(1+([^3H]prostaglandin E2 concentration/Kd))
Sequence of human EP2 receptor (P43116 whole entry): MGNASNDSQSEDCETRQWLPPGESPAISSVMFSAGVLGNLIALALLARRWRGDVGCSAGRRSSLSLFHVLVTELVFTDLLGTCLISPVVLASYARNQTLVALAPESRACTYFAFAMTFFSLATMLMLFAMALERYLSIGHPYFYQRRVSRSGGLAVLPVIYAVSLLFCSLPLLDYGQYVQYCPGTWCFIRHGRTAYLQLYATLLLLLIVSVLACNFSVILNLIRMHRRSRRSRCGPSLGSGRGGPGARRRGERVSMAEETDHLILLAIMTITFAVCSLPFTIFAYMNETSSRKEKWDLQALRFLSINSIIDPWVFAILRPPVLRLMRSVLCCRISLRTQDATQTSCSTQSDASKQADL
Note that the dissociation constant (Kd value) was calculated by Scatchard analysis.

Assay [1] relates to Pulmonary fibroblasts derived from a human fetus (IMR90). Description: Test for inhibition of pulmonary fibroblast proliferation (BrdU incorporation). The assay is classed as cell-based. As to conditions: IMR90, FGF 10 ng/mL, BrdU incorporation, read-out: IC50 value (nM) of inhibition effect of pulmonary fibroblast proliferation. The procedure: Measurement of inhibition effect of pulmonary fibroblast proliferation was performed by modifying the method of Huang et al. (American Journal of Respiratory Cell and Molecular Biology, 39, 482 (2008)). Pulmonary fibroblasts derived from a human fetus (IMR90, purchased from American Type Culture Collection) were cultured in DMEM medium containing 10% FBS and seeded at 1×10^4 cells/well of a 96-well plate. After culturing for approximately 8 hours in a carbon dioxide incubator, the medium was replaced with FBS-free DMEM medium and the culturing was performed for one night. On the following day, the medium was replaced with a new FBS-free DMEM medium, and then a test compound dissolved in dimethyl sulfoxide (final concentration: 0.1%) and FGF (final concentration: 10 ng/mL, manufactured by Wako Pure Chemical Industries, Ltd.) were added thereto and allowed to stand undisturbed in a carbon dioxide incubator. After 22 hours, a BrdU labeling solution (manufactured by Roche) was added and culturing was performed for another 2 hours. After the completion of the culturing, amount of BrdU incorporation was measured using Cell Proliferation ELISA BrdU (colorimetric) (manufactured by Roche). The concentration of the test compound required to inhibit BrdU incorporation to 50% (IC50 value) was calculated by non-linear regression of the test compound concentration and the amount of BrdU incorporation using EXSAS (Ver. 8.0.0, manufactured by Arm Systex).
For orientation: Incorporation of labelled thymidine or its analogues reports DNA synthesis.

Molecule `CCOc1cc(-c2ccc(CN(Cc3cccc(NCC(=O)O)n3)S(=O)(=O)c3ccccn3)cc2)ccn1` [Comparative example 15, (6-{[4-(2-Ethoxypyridin-4-yl)benzyl](pyridin-2-ylsulfonyl)aminomethyl}-pyridin-2-ylamino)acetic acid] came in with an inhibition constant (Ki) at human EP2 receptor of 3.2 nM. Also, the IC50 in assay [1] (Homo sapiens, IMR-90) is greater than 1 nM.
On human EP2 receptor, `CC#Cc1cccc(-c2ccc(CN(Cc3cccc(NCC(=O)O)n3)S(=O)(=O)c3ccsc3)cc2)c1` [Example 18] displayed a Ki of 0.99 nM. Further, the IC50 in assay [1] amounted to 0.0042 nM.

As usually defined, the Ki is the equilibrium dissociation constant of an inhibitor or competing ligand from its target. Higher therefore signals a looser hold on the target.
